Measurements taken from ChEMBL document CHEMBL5465560, “Selectivity Literature for EUbOPEN Chemogenomic Library” (2024).

Tests used:
[1] = biological target: Serine/threonine-protein kinase SBK1 (Homo sapiens) (UniProt Q52WX2); test: Selectivity interaction (KinomeScan (DiscoverX)) EUB0001049a SBK1; conditions: at 1 µM
[2] = biological target: T1, Discoidin domain-containing receptor 2 (Homo sapiens) (UniProt Q16832); test: Selectivity interaction (KinomeScan (DiscoverX)) EUB0001049a DDR2; conditions: at 1 µM
T1 sequence (whole entry): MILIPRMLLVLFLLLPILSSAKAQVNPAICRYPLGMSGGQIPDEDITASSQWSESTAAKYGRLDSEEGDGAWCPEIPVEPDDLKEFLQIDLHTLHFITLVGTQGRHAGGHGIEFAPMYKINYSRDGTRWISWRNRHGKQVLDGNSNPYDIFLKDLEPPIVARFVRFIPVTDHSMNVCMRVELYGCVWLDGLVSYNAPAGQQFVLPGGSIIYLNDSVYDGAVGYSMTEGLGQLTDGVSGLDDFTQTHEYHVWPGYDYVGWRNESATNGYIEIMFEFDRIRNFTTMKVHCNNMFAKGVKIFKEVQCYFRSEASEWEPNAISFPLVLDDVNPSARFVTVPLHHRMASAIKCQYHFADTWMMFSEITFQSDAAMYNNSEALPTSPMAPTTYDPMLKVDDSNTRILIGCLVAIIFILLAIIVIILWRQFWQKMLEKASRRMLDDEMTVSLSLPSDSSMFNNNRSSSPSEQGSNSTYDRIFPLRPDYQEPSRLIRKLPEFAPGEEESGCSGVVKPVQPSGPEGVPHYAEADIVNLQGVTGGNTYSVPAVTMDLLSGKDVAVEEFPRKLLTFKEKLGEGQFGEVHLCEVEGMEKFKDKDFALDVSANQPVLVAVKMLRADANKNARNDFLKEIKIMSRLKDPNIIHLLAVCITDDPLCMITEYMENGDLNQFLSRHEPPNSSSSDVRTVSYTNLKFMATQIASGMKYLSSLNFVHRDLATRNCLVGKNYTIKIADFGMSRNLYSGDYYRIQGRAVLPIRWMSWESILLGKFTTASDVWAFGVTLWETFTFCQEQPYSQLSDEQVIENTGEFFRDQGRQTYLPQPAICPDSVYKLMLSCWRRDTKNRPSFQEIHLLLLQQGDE

[3] = biological target: T2, Mitogen-activated protein kinase kinase kinase 15 (Homo sapiens) (UniProt Q6ZN16); test: Selectivity interaction (KinomeScan (DiscoverX)) EUB0000695a MAP3K15; conditions: at 100 nM
T2 sequence (whole entry): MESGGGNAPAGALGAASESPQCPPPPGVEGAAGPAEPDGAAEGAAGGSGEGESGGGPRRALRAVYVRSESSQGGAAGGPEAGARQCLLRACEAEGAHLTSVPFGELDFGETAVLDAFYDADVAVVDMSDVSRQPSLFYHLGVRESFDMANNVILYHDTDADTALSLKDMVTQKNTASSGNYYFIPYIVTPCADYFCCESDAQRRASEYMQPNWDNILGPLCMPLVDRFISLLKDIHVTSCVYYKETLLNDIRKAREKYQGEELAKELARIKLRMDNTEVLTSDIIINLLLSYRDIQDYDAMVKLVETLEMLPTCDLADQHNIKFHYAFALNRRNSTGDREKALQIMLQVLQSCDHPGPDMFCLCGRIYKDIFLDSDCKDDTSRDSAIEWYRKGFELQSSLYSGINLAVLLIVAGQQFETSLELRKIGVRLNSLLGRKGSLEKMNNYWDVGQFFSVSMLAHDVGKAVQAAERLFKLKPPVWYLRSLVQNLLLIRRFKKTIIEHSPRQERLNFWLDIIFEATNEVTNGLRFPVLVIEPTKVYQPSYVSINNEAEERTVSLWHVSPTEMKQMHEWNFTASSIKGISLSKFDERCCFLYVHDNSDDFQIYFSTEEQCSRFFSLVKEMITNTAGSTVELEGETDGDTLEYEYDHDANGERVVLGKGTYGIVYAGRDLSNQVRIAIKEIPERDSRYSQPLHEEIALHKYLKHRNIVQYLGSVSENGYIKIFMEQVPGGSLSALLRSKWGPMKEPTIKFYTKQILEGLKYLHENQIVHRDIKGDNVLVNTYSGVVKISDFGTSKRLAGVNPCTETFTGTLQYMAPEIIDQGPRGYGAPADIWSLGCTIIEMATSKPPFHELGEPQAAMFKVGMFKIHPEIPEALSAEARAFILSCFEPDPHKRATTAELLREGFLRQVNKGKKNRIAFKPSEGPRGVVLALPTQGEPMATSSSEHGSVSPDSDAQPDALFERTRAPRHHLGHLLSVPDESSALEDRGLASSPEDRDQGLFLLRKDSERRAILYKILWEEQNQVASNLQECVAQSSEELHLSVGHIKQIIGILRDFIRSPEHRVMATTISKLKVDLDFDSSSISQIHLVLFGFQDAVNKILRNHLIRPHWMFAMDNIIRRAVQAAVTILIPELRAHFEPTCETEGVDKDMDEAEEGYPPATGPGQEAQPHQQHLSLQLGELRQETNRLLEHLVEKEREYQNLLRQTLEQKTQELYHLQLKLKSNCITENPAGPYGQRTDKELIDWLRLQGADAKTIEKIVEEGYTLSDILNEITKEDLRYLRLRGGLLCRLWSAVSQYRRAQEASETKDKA

[4] = biological target: Dual specificity tyrosine-phosphorylation-regulated kinase 1A (Homo sapiens, UniProt Q13627); test: Selectivity interaction (Kinase panel (Z-LYTE Assay)) EUB0001632a DYRK1A; conditions: at 10 µM
[5] = biological target: Cyclin-dependent kinase 9 (Homo sapiens, UniProt P50750); test: Selectivity interaction (LanthaScreen Eu Kinase Binding Assay) EUB0001632a CDK9; conditions: at 10 µM
Sequence of Cyclin-dependent kinase 9 (P50750 whole entry): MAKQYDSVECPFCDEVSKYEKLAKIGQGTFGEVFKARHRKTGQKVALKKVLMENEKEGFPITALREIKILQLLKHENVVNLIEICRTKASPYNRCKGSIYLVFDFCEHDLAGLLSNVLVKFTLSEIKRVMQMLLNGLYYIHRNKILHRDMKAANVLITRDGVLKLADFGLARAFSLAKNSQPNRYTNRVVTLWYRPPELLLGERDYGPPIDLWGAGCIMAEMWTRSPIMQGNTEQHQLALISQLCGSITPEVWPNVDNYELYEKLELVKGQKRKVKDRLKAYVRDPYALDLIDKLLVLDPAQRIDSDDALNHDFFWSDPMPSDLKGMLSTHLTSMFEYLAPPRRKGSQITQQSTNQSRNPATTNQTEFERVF

Sequence of Serine/threonine-protein kinase SBK1 (Homo sapiens) (Q52WX2 whole entry, the tested form may be a part): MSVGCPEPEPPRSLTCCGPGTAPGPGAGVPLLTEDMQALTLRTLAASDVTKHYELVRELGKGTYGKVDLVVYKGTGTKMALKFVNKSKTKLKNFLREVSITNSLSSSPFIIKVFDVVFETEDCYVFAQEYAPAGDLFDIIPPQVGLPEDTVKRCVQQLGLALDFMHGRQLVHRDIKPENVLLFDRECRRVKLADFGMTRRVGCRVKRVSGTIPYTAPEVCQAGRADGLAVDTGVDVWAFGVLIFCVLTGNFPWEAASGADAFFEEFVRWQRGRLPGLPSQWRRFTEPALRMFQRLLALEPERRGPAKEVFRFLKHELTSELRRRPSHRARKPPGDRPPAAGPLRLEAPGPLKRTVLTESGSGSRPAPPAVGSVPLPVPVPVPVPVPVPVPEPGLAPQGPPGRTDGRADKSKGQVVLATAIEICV

**Q.** Which results are given for `COc1cc(Nc2nc(C)cc(-c3cnn4nc(OC)ccc34)n2)cc(C(F)(F)F)c1`?
**A.** % of control [1]: 87%; % of control [2]: 65%

**Q.** `Cc1cc(F)c(C(=O)Nc2cccc(-c3nncn3C(C)C)n2)cc1-n1cnc(C2CC2)c1` was tested. Which % of control [3] did it give?
**A.** The % of control was 66%.

**Q.** Which % of control [4] does the source give for `Cn1cc(-n2cnc3c(NCc4nc5cc(Cl)c(Cl)cc5[nH]4)nc(N4CCOCC4)nc32)cn1` here?
**A.** Its % of control is -3.48%.

**Q.** What about the % of inhibition [5] of the same compound?
**A.** The % of inhibition was -166%.
